{"source": "patent US20240058308A1", "about": "“TREATMENT AND PREVENTION OF DRY MACULAR DEGENERATION” (The Regents of the University of Michigan, priority 2021, published 2024)", "key": {"[1]": {"system": "primary RPE cultures", "experiment": "Ketone body production (β-hydroxybutyrate, β-HB) fluorometric assay", "assay_type": "cell-based, human", "details": "24 hours, apical supernate", "protocol": "(§1) After 24 hours of exposure to drugs, supernates were collected and subjected to western blotting for APOE detection and a fluorometric assay for β-HB detection [Ref 51; incorporated by reference in its entirety]. Twenty microliters of apical and basolateral supernates for APOE were mixed with SDS sample buffer and blotted with antibody at a dilution of 1:2000. APOE and β-HB values were normalized to the average value of the vehicle and experimental group within each experimental repeat.\n(§2) The RPE handles an enormous lipid burden on a daily basis, including OS ingestion from its apical side and lipoprotein particle absorption from its basolateral side. Rather than storing excess lipid, the RPE may choose to degrade or secrete surplus lipids (FIG. 4a). A marker of lipid degradation is the production of KBs, which are secreted by the RPE apically and serve as an energy source for photoreceptors [Refs. 7,8; incorporated by reference in their entireties]. A marker of lipid secretion is the production of the lipoprotein APOE, which is a major component of drusen [Ref. 50; incorporated by reference in its entirety]. It was contemplated that autophagy inducers promote ketogenesis through degradation of ingested lipids, reducing the stimulus for secretion of drusen-promoting APOE."}, "[2]": {"system": "primary RPE cultures", "experiment": "APOE secretion by western blotting of supernates", "assay_type": "cell-based, human", "details": "24 hours", "protocol": "as §1, §2"}, "[3]": {"system": "primary hfRPE culture", "experiment": "Undigestible autofluorescent material (UAM) accumulation, elimination and granule size after oxOS feedings", "assay_type": "cell-based, human"}, "[4]": {"system": "ARPE-19", "experiment": "LC3 colocalization to UAM granules", "assay_type": "cell-based, human", "details": "ARPE-19 treated with drug", "text": "FIG. 5. Autophagy inducer FLBZ reduces accumulation of lipofuscin-like material. (A) Lipofuscin-like material, which we term undigestible autofluorescent material (UAM), accumulates in RPE after repeated feedings of photo-oxidized outer segments (oxOS). UAM granules (green). DAPI (blue). Phalloidin stain of F-actin outlining cell borders (pink). Scale bar: 10 μm. (B) Effects of FLBZ or Torin on UAM accumulation (left) and elimination (right). FLBZ or Torin is fed together with oxOS daily for 20 days in a month (left, n=5) or fed daily for 20 days in a month after completion of oxOS feedings to stimulate UAM accumulation (right, n=7). Unlike Torin, FLBZ both reduces UAM accumulation and increases UAM elimination. DMSO as vehicle control. U 673 AM normalized to DMSO condition. […] UAM (red). LC3 (green). DAPI (blue). Arrows indicate LC3 puncta surrounding a lipofuscin granule. Scale bar: 2 μm. (D) Effects of FLBZ on UAM granule size. Compared to vehicle (DMSO), FLBZ decreases UAM granule size both during oxOS feedings (left) and after UAM buildup has already occurred (right). n=40. ns p>0.05, *p<0.05, **p<0.01, ***p<0.001.\nHuman fetal eyes were obtained from Advanced Bioscience Resources (ABR, Alameda, California) and cultured [Ref. 43; incorporated by reference in its entirety]. ARPE-19 cells were cultured at passage 19 [Ref. 51; incorporated by reference in its entirety]."}, "[5]": {"system": "primary hfRPE culture", "experiment": "UAM-induced senescence (β-galactosidase activity)", "assay_type": "cell-based, human", "text": "FIG. 6. FLBZ alleviates UAM-induced senescence and tight-junction disruption. (A) (Top) FLBZ reduces senescence when fed concurrently with oxOS during UAM accumulation. (Bottom) FLBZ is unable to reverse established senescence induced by already accumulated UAM. FLBZ is fed daily together with oxOS for 20 days in a month (top) or after one month of 20 oxOS feedings to induce UAM buildup (bottom). DMSO as vehicle control. Senescence measured by β-galactosidase activity (blue). Scale bar: 50 μm. n=6. […] Left graph n=6, right graph n=12. ns p>0.05, *p<0.05, ***p<0.001.\nUAM accumulation and quantification as well as assays on senescence were carried out [Ref. 51; incorporated by reference in its entirety]. UAM granule size was measured with Leica LAS X software using the length of the long axis of the granule ellipse."}, "[6]": {"system": "RPE of mouse eye", "experiment": "Intravitreal injection in mouse eyes, autophagy by LC3II/LC3I ratio of lysates", "assay_type": "in vivo", "details": "four concentrations up to 500 uM, multiple timepoints, DMSO in other eye", "protocol": "Experiments were conducted during development of embodiments herein to assay for autophagy in the mouse eye. Experiments were conducted to measure autophagy by giving an intraperitoneal injection of leupeptin, followed by assaying for LC3 puncta in an RPE flatmount of a GFP-LC3 mouse. Background from GFP-LC3 debris deposited on the RPE when the retina was peeled off for the flat mount prevented signal detection. A biochemical assay was then employed for autophagy induction, measuring an increase in the lipidation of the autophagy core protein LC3 (lipidated LC3=LC3-II, unlipidated LC3=LC3-I, so higher LC3-II/LC3-I ratio indicates autophagy induction). Sufficient signal as obtained. […] Harvesting techniques were also optimized for collecting RPE from mouse eyes.\nExperiments were conducted during development of embodiments herein to establish a positive control for autophagy induction. […] Autophagy induction was measured at 4 different concentrations of Torin (500 nm, 5 um, 50 um, 500 um) and at 5 different timepoints after injection (1 day, 3 days, 7 days, 14 days, 28 days). […] Nevertheless, the ability of intravitreal injections of FLBZ to induce autophagy in the RPE was assessed. In preparation for injecting FLBZ intravitreally into mice, solubility assays were performed and the maximum amount of FLBZ that can be injected without it crashing out of solution in the vitreous was determined. […]"}, "[7]": {"experiment": "Solubility assays of DMSO stock mixed with PBS (simulating the vitreous)", "assay_type": "physicochemical", "protocol": "Experiments were conducted during development of embodiments herein to establish a positive control for autophagy induction. The direct mTOR inhibitor Torin1 was selected over rapamycin/sirolimus as the positive control, based on the capacity of Torin1 to induce autophagy in primary culture more strongly and more consistently than rapamycin. The experimental set-up involved injecting one eye with Torin and the other eye with the DMSO vehicle. Autophagy induction was measured at 4 different concentrations of Torin (500 nm, 5 um, 50 um, 500 um) and at 5 different timepoints after injection (1 day, 3 days, 7 days, 14 days, 28 days). […] Nevertheless, the ability of intravitreal injections of FLBZ to induce autophagy in the RPE was assessed. In preparation for injecting FLBZ intravitreally into mice, solubility assays were performed and the maximum amount of FLBZ that can be injected without it crashing out of solution in the vitreous was determined. […] This helped inform maximal concentrations of flubendazole that could be injected intravitreally. Four different concentrations were injected, up to the maximum solubility of FLBZ, and autophagy induction was assayed over a timeframe ranging from 1 week to 4 weeks after injection."}, "[8]": {"system": "primary hfRPE culture", "description": "Phagocytosis assays using bovine outer segments was performed using the “pulse-only” method [Ref 43; incorporated by reference in its entirety]. Values at the zero-hour timepoint were used for normalization."}}}
{"smiles": "COC(=O)Nc1nc2cc(C(=O)c3ccc(F)cc3)ccc2[nH]1", "note": "[FLBZ, Flubendazole]", "values": [{"measurement": "β-hydroxybutyrate (β-HB) production", "setting": "[1]", "result": "increased production"}, {"measurement": "APOE secretion, apical and basolateral", "setting": "[2]", "result": "reduced the apical and basolateral secretion of APOE"}, {"measurement": "UAM granule size, drug during oxOS feedings", "setting": "[3]; concurrent feeding of oxOS and drug", "result": "smaller than untreated cultures"}, {"measurement": "UAM accumulation, drug fed concurrently with oxOS", "setting": "[3]; fed daily with oxOS over a month, FLBZ 12 μM, Torin 1 μM, vs vehicle", "result": "significantly less UAM accumulation"}, {"measurement": "UAM granule size, drug after UAM buildup", "setting": "[3]; twenty drug feedings after UAM accrual", "result": "smaller granule size"}, {"measurement": "UAM level, drug fed after UAM had accumulated", "setting": "[3]; twenty oxOS feedings, wash, then twenty drug feedings over an additional month", "result": "significantly lower levels of UAM"}, {"measurement": "LC3 colocalization to UAM granules", "setting": "[4]", "result": "LC3 colocalization to UAM granules"}, {"measurement": "Senescence, drug after UAM had accumulated", "setting": "[5]; drug fed after one month of 20 oxOS feedings", "result": "cell senescence was not decreased"}, {"measurement": "Senescence, drug cofed with oxOS", "setting": "[5]; fed daily together with oxOS for 20 days in a month, vs vehicle", "result": "less senescence"}, {"measurement": "Autophagy induction in RPE after intravitreal injection (LC3II/LC3I ratio)", "setting": "[6]", "result": "no convincing evidence for autophagy induction"}, {"measurement": "solubility", "setting": "[7]; DMSO stock solution mixed with PBS (simulating the vitreous), aqueous with cosolvent or surfactant or cyclodextrin, kinetic from dmso stock, delivered in 1 ul of DMSO, read-out: Maximum soluble concentration for intravitreal injection", "result": 500, "unit": "µM"}, {"measurement": "Precipitation of DMSO stock solution when mixed with PBS", "setting": "[7]; Torin 1 mM stock mixed 1:1 with PBS, flubendazole 3 mM stock", "result": "crashed out when mixed with PBS unless at a dilution of 1:20 or more"}, {"measurement": "OS phagocytosis efficiency / OS degradative capacity", "setting": "[8]", "result": "no effect on OS degradative capacity"}]}
